Test results reported in PubChem BioAssay AID328 (DTP/NCI, 2004).
“And” between values parts separate entries of the source, which are not always exact repeats. Equal values may be shown once. Toxic doses and inconclusive results are not listed.

System: BDF1 mice, P388 leukemia ip, median survival T/C
Test: NCI In Vivo Anticancer Drug Screen. Data for tumor model P388 Leukemia (intraperitoneal) in B6D2F1 (BDF1) mice
Conditions: endpoint: median survival time, higher = longer survival
In short: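 Compound-treated tumour-bearing mice were compared with vehicle-treated controls. Survival was recorded, and the value is the treated-group measurement divided by the control-group measurement (T/C).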

[1] = dose: 25.0 mg/kg/injection, schedule: Q04DX003 (ip), vehicle: water
[2] = dose: 50.0 mg/kg/injection, schedule: Q04DX003 (ip), vehicle: water
[3] = dose: 400.0 mg/kg/injection, schedule: Q04DX003 (ip), vehicle: water
[4] = dose: 25.0 mg/kg/injection, schedule: Q01DX009 (ip), vehicle: saline
[5] = dose: 50.0 mg/kg/injection, schedule: Q01DX009 (ip), vehicle: saline
[6] = dose: 100.0 mg/kg/injection, schedule: Q01DX009 (ip), vehicle: saline
[7] = dose: 12.5 mg/kg/injection, schedule: Q01DX009 (ip), vehicle: saline with Tween-80
[8] = dose: 25.0 mg/kg/injection, schedule: Q01DX009 (ip), vehicle: saline with Tween-80

Which T/C (dose: 3.12 mg/kg/injection, schedule: Q01DX009 (ip), vehicle: water) does the source give for `CC(=O)Nc1cc(NC(C)=O)cc(N(CCO)CCO)c1` here?
The T/C was 99 % of control.

And the T/C (dose: 6.25 mg/kg/injection, schedule: Q01DX009 (ip), vehicle: water)?
The T/C was 90 % of control and 111 % of control.

And the T/C (dose: 12.5 mg/kg/injection, schedule: Q01DX009 (ip), vehicle: water)?
Its T/C is 93 % of control and 101 % of control.

And the T/C (dose: 25.0 mg/kg/injection, schedule: Q01DX009 (ip), vehicle: water)?
The T/C was 97 % of control and 101 % of control.

And the T/C [1]?
The T/C was 89 % of control.

And the T/C (dose: 50.0 mg/kg/injection, schedule: Q01DX009 (ip), vehicle: water)?
The T/C was 117 % of control.

What about the T/C [2] of the same compound?
Its T/C is 100 % of control.

What about the T/C (dose: 100.0 mg/kg/injection, schedule: Q04DX003 (ip), vehicle: water) of the same compound?
Its T/C is 104 % of control.

What about the T/C (dose: 200.0 mg/kg/injection, schedule: Q04DX003 (ip), vehicle: water) of the same compound?
The T/C was 112 % of control.

What about the T/C [3] of the same compound?
Its T/C is 108 % of control.

Which T/C (dose: 6.25 mg/kg/injection, schedule: Q01DX009 (ip), vehicle: Klucel (hydroxypropylcellulose) (HPC)) does the source give for `CC[C@@]12CCCN3CC[C@]4(c5cccc(OC)c5N(C(C)=O)[C@@H]4CC1)[C@H]32` here?
Its T/C is 100 % of control.

What about the T/C (dose: 12.5 mg/kg/injection, schedule: Q01DX009 (ip), vehicle: Klucel (hydroxypropylcellulose) (HPC)) of the same compound?
Its T/C is 95 % of control.

What about the T/C (dose: 25.0 mg/kg/injection, schedule: Q01DX009 (ip), vehicle: Klucel (hydroxypropylcellulose) (HPC)) of the same compound?
The T/C was 104 % of control.

And the T/C (dose: 50.0 mg/kg/injection, schedule: Q01DX001 (ip), vehicle: Klucel (hydroxypropylcellulose) (HPC))?
The T/C was 108 % of control.

What about the T/C (dose: 100.0 mg/kg/injection, schedule: Q01DX001 (ip), vehicle: Klucel (hydroxypropylcellulose) (HPC)) of the same compound?
Its T/C is 116 % of control.

What about the T/C (dose: 200.0 mg/kg/injection, schedule: Q01DX001 (ip), vehicle: Klucel (hydroxypropylcellulose) (HPC)) of the same compound?
Its T/C is 91 % of control.

How did the T/C [4] turn out when `C1CC[N+]2(CC1)CCC2` was run?
Its T/C is 113 % of control.

What about the T/C [5] of the same compound?
The T/C was 109 % of control.

What about the T/C [6] of the same compound?
Its T/C is 100 % of control.

What does the source list for `O=C(O)C(O)C(O)C1[O][Sb][O]C1CO` (configuration not stated)?
T/C (dose: 22.0 mg/kg/injection, schedule: Q04DX003 (ip), vehicle: saline): 110 % of control; T/C [5]: 150 % of control; T/C (dose: 75.0 mg/kg/injection, schedule: Q01DX009 (ip), vehicle: saline): 155 % of control; T/C [6]: 166 % of control; T/C (dose: 150.0 mg/kg/injection, schedule: Q01DX009 (ip), vehicle: saline): 155 % of control; T/C (dose: 150.0 mg/kg/injection, schedule: Q04DX003 (ip), vehicle: saline): 177 % of control; T/C (dose: 225.0 mg/kg/injection, schedule: Q01DX009 (ip), vehicle: saline): 150 % of control and 183 % of control

Which results are given for `COC1(OC)OC(c2ccccc2)=C(C#N)C(/C=C\c2ccccc2)C1(OC)OC` (configuration not stated)?
T/C [7]: 100 % of control; T/C [8]: 91 % of control; T/C (dose: 50.0 mg/kg/injection, schedule: Q01DX009 (ip), vehicle: saline with Tween-80): 90 % of control and 91 % of control; T/C (dose: 200.0 mg/kg/injection, schedule: Q01DX009 (ip), vehicle: saline with Tween-80): 106 % of control

Which T/C [7] does the source give for `BrCC[N+]12CC[N+](CCBr)(CC1)C2` here?
Its T/C is 112 % of control.

What about the T/C [8] of the same compound?
The T/C was 105 % of control.

And the T/C [1]?
The T/C was 110 % of control.

What about the T/C [2] of the same compound?
Its T/C is 116 % of control.

What about the T/C [3] of the same compound?
The T/C was 172 % of control.

How did the T/C (dose: 1.25 mg/kg/injection, schedule: Q01DX009 (ip), vehicle: water) turn out when `COc1cc2c[n+](C)c3c4cc5c(cc4ccc3c2cc1OC)OCO5` (tested in a mixture with another compound) was run?
The T/C was 124 % of control.

What about the T/C (dose: 10.0 mg/kg/injection, schedule: Q01DX009 (ip), vehicle: saline) of the same compound?
Its T/C is 163 % of control and 166 % of control.

And the T/C (dose: 10.0 mg/kg/injection, schedule: Q01DX009 (ip), vehicle: water)?
The T/C was 160 % of control.

And the T/C (dose: 20.0 mg/kg/injection, schedule: Q01DX009 (ip), vehicle: saline)?
The T/C was 172 % of control and 188 % of control and 203 % of control.

What about the T/C (dose: 20.0 mg/kg/injection, schedule: Q01DX009 (ip), vehicle: water) of the same compound?
Its T/C is 150 % of control.

What about the T/C (dose: 40.0 mg/kg/injection, schedule: Q01DX009 (ip), vehicle: saline) of the same compound?
The T/C was 174 % of control and 215 % of control.

And the T/C (dose: 40.0 mg/kg/injection, schedule: Q01DX009 (ip), vehicle: water)?
Its T/C is 110 % of control.

And the T/C (dose: 80.0 mg/kg/injection, schedule: Q01DX009 (ip), vehicle: saline)?
Its T/C is 172 % of control and 188 % of control.

`O=C1C(C2CCCCC2)CCCC1C1CCCCC1` (configuration not stated) was tested. Which T/C (dose: 100.0 mg/kg/injection, schedule: Q01DX001 (ip), vehicle: saline with Tween-80) did it give?
The T/C was 107 % of control.

What about the T/C (dose: 200.0 mg/kg/injection, schedule: Q01DX001 (ip), vehicle: saline with Tween-80) of the same compound?
The T/C was 98 % of control.

`CCOC(=O)NC(=O)CC` was tested. Which T/C (dose: 25.0 mg/kg/injection, schedule: Q01DX005 (ip), vehicle: saline) did it give?
The T/C was 114 % of control.

What about the T/C [4] of the same compound?
The T/C was 102 % of control.

And the T/C (dose: 50.0 mg/kg/injection, schedule: Q01DX005 (ip), vehicle: saline)?
Its T/C is 114 % of control.

What about the T/C [5] of the same compound?
Its T/C is 102 % of control.

And the T/C (dose: 50.0 mg/kg/injection, schedule: Q04DX003 (ip), vehicle: saline)?
The T/C was 103 % of control and 104 % of control.

And the T/C (dose: 100.0 mg/kg/injection, schedule: Q01DX005 (ip), vehicle: saline)?
Its T/C is 96 % of control.

What about the T/C [6] of the same compound?
The T/C was 115 % of control.

And the T/C (dose: 100.0 mg/kg/injection, schedule: Q04DX003 (ip), vehicle: saline)?
The T/C was 96 % of control and 103 % of control and 213 % of control.

And the T/C (dose: 200.0 mg/kg/injection, schedule: Q01DX005 (ip), vehicle: saline)?
The T/C was 122 % of control.

What about the T/C (dose: 200.0 mg/kg/injection, schedule: Q01DX009 (ip), vehicle: saline) of the same compound?
The T/C was 112 % of control.

And the T/C (dose: 200.0 mg/kg/injection, schedule: Q04DX003 (ip), vehicle: saline)?
Its T/C is 105 % of control and 112 % of control and 114 % of control.

And the T/C (dose: 400.0 mg/kg/injection, schedule: Q01DX009 (ip), vehicle: saline)?
Its T/C is 106 % of control.

What about the T/C (dose: 400.0 mg/kg/injection, schedule: Q04DX003 (ip), vehicle: saline) of the same compound?
Its T/C is 99 % of control and 113 % of control.

What about the T/C (dose: 600.0 mg/kg/injection, schedule: Q04DX003 (ip), vehicle: saline) of the same compound?
The T/C was 114 % of control.

With `COc1ccc(OC)c(/C=C/c2ccnc3ccccc23)c1` as the compound, how does the T/C (dose: 50.0 mg/kg/injection, schedule: Q01DX010 (ip), vehicle: saline) read?
Its T/C is 95 % of control.

What about the T/C (dose: 100.0 mg/kg/injection, schedule: Q01DX010 (ip), vehicle: saline) of the same compound?
Its T/C is 110 % of control.

And the T/C (dose: 200.0 mg/kg/injection, schedule: Q01DX010 (ip), vehicle: saline)?
Its T/C is 150 % of control.

What about the T/C (dose: 400.0 mg/kg/injection, schedule: Q01DX010 (ip), vehicle: saline) of the same compound?
Its T/C is 165 % of control.

Which T/C (dose: 2.5 mg/kg/injection, schedule: Q01DX010 (ip), vehicle: saline) does the source give for `Cc1ccc(C[P+](c2ccccc2)(c2ccccc2)c2ccccc2)cc1` here?
Its T/C is 114 % of control.

What about the T/C (dose: 5.0 mg/kg/injection, schedule: Q01DX010 (ip), vehicle: saline) of the same compound?
Its T/C is 114 % of control.

What about the T/C (dose: 10.0 mg/kg/injection, schedule: Q01DX010 (ip), vehicle: saline) of the same compound?
The T/C was 104 % of control.

With `CC1=C2C(=O)c3ccccc3C2=C(C)S(=O)(=O)O1` as the compound, how does the T/C (dose: 50.0 mg/kg/injection, schedule: Q01DX009 (ip), vehicle: carboxymethylcellulose (CMC)) read?
Its T/C is 119 % of control.

What about the T/C (dose: 100.0 mg/kg/injection, schedule: Q01DX009 (ip), vehicle: carboxymethylcellulose (CMC)) of the same compound?
Its T/C is 90 % of control.

What about the T/C (dose: 100.0 mg/kg/injection, schedule: Q04DX003 (ip), vehicle: saline with Tween-80) of the same compound?
The T/C was 122 % of control.

With `C[C@]12C=CC(=O)C=C1CC[C@H]1[C@@H]3C[C@@H](O)[C@](O)(C(=O)CO)[C@@]3(C)C[C@H](O)[C@@]12F` as the compound, how does the T/C (dose: 50.0 mg/kg/injection, schedule: Q01DX009 (ip), vehicle: Klucel (hydroxypropylcellulose) (HPC)) read?
Its T/C is 100 % of control.

And the T/C (dose: 132.0 mg/kg/injection, schedule: Q01DX009 (ip), vehicle: Klucel (hydroxypropylcellulose) (HPC))?
The T/C was 118 % of control.

What about the T/C (dose: 200.0 mg/kg/injection, schedule: Q01DX009 (ip), vehicle: Klucel (hydroxypropylcellulose) (HPC)) of the same compound?
Its T/C is 113 % of control.
